Data set [1] can be described thus: Half life in orally and iv dosed rat. Conditions: in vivo. The format is ADME, organism-based.
Data set [2] is described as follows: Half life in orally and iv dosed dog. The format is ADME, organism-based, Canis lupus familiaris. Conditions: in vivo.
A short description of data set [3]: Half life in orally and iv dosed Squirrel monkey. The format is ADME, organism-based, Saimiri sciureus. Conditions: in vivo.
Data set [4] is described as follows: Cmax in po dosed squirrel monkey assessed after first episode of emesis. The format is ADME, organism-based, Saimiri sciureus. The arrangement: route oral. Conditions: in vivo.
The nature of data set [5]: Bioavailability in orally and iv dosed rat. The class given is ADME, organism-based. To be noted: in vivo, po.
Data set [6] in a line: Bioavailability in orally and iv dosed dog. The class given is ADME, organism-based, Canis lupus familiaris. To be noted: in vivo, po.
Data set [7] can be described thus: Bioavailability in orally and iv dosed Squirrel monkey. The class given is ADME, organism-based, Saimiri sciureus. Conditions: in vivo, po.
The subject of data set [8] is Ovis aries. The experiment in a line: Inhibition of late-phase antigen-induced bronchoconstriction in ascaris-sensitive sheep at 0.5 mg/kg, iv daily for 4 days and antigen challenged after 2 hrs post dose on 4th day. The format is functional.
The target in data set [9] is 3',5'-cyclic-AMP phosphodiesterase 4A (Homo sapiens, UniProt P27815). The data set is described as follows: Intrinsic inhibition of GST-fused human PDE4A expressed in SF9 cells.
3',5'-cyclic-AMP phosphodiesterase 4A, sequence (P27815 whole entry, the tested form may be a part): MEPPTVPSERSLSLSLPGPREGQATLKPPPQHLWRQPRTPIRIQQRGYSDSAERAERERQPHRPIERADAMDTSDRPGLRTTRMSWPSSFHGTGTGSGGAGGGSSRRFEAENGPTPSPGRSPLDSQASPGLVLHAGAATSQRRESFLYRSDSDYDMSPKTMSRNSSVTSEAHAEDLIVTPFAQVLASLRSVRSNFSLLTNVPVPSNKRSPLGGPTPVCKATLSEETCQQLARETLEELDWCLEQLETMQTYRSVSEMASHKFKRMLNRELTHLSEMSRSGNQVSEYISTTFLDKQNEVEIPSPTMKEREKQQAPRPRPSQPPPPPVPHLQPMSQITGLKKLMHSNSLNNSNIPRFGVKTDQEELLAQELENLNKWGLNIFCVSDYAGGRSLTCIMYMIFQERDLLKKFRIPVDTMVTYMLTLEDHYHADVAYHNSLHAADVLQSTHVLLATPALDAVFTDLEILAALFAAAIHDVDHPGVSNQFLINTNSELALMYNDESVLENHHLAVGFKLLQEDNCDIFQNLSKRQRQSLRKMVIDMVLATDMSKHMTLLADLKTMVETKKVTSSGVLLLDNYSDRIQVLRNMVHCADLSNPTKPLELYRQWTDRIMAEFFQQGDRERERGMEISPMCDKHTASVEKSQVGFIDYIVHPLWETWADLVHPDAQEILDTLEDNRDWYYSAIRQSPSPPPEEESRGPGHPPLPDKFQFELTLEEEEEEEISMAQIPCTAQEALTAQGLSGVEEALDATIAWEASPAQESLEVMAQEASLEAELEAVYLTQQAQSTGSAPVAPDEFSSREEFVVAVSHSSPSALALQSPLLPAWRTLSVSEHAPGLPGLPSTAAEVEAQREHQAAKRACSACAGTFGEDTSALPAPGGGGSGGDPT
In data set [10] the test system is Blood. The experiment in a line: Inhibition of LPS-induced TNFalpha production in human whole blood. The format is functional, tissue-based.
Data set [11] has as its target Voltage-gated inwardly rectifying potassium channel KCNH2 (Homo sapiens, UniProt Q12809).
Data set [12] has as its system Blood. The data set is described as follows: Inhibition of LPS-induced TNFalpha production in Squirrel monkey whole blood. The format is functional, tissue-based. Conditions: Saimiri sciureus.
The target of data set [13] is Cytochrome P450 2C9 (Homo sapiens, UniProt P11712). The experiment in a line: Inhibition of CYP2C9. The format is ADME.
Cytochrome P450 2C9, sequence (P11712 whole entry): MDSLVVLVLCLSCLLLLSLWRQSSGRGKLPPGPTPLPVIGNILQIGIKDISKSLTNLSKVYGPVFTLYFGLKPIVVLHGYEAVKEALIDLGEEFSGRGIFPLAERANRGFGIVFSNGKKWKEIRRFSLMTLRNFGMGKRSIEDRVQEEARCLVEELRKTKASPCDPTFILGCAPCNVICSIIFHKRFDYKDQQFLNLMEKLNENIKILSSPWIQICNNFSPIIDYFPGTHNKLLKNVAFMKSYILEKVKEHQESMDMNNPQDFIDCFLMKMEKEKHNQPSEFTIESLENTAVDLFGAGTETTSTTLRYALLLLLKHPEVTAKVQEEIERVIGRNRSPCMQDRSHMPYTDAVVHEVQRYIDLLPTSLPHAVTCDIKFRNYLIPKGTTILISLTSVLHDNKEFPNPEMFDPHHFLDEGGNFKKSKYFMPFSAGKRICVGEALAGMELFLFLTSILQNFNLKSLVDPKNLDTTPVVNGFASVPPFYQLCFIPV
In data set [14] the test system is Cavia porcellus. The experiment in a line: Inhibition of ovalbumin-induced bronchoconstriction in conscious guinea pig at 0.03 mg/kg, ip administered 30 mins before ovalbumin challenge. The class given is functional. Conditions: route intraperitoneal.
The nature of data set [15]: Ratio of emesis Cmax in Squirrel monkey at 2 mg/kg, po to IC50 for LPS-induced TNFalpha production in Squirrel monkey whole blood. The class given is functional, Saimiri sciureus.

pIC50: −log10 of the molar value.

The term half-life denotes the time needed for the level to fall by half in the phase considered. As a reminder, the Cmax is the peak of the concentration-time curve. A word on the bioavailability: it is dose-corrected exposure relative to a reference, in per cent. The inhibition in vivo is the share of the control response that was lost under treatment. The term pIC50 denotes the IC50 on a negative log10 scale, so that one unit is a factor of ten.

Voltage-gated inwardly rectifying potassium channel KCNH2, sequence (Q12809 whole entry): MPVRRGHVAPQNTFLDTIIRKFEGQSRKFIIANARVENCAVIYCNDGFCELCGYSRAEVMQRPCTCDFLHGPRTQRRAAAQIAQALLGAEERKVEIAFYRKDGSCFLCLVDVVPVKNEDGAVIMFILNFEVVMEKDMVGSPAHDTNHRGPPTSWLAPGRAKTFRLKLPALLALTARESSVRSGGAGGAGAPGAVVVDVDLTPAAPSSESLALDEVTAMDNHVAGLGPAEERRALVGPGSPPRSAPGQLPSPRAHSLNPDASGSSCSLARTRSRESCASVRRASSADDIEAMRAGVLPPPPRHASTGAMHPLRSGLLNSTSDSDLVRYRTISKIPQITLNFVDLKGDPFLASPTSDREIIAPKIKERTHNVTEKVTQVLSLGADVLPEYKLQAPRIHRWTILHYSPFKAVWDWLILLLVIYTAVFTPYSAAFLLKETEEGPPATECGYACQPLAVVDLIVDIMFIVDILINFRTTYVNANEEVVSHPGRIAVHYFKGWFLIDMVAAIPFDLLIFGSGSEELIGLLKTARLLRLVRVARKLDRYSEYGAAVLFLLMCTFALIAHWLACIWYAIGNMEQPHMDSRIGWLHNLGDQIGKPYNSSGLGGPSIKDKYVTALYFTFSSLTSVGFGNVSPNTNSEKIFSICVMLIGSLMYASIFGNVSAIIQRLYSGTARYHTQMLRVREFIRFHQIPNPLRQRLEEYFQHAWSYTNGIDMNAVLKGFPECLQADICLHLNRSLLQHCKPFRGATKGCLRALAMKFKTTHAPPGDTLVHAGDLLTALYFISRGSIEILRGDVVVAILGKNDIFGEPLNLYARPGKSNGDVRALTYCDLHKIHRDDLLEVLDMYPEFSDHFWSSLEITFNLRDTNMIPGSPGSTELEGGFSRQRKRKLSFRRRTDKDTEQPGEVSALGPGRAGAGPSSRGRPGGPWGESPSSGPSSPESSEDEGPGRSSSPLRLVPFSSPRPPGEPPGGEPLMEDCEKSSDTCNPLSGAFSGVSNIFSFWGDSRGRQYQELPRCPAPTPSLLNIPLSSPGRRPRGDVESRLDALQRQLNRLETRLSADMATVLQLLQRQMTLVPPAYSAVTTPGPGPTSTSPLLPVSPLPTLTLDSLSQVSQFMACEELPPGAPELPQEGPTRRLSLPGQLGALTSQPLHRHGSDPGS

Regarding `Cc1noc(/C(=C/c2cccc(-c3cc(C(C)(C)S(C)(=O)=O)cc4cccnc34)c2)c2ccc(S(C)(=O)=O)cc2)n1`, the half-life in data set [1] was 4 h; in data set [2], 5 h; in data set [3], 4 h. The compound further returned a Cmax in [4] of 3 µM. Also, the bioavailability in [5] came out at 95%; in [6] it was 55%; in data set [7], 33%. For the same compound, the inhibition in vivo at 0.5 mg/kg in [8] is 92%.

With `O=C(Nc1c(Cl)cncc1Cl)c1cn(-c2ccc(Cl)cc2)c2ncccc2c1=O`, the results for the negative-log IC50 (pIC50) in data set [9], in [10] and in data set [11] were 9.35, 6.74 and 6.70, respectively.

`CC(C)NC(=O)c1cn(-c2cccc(Br)c2)c2ncccc2c1=O`: the pIC50 in data set [9] was 8.04; in [10], 6.15; in [11], 4.50.

As to `CC(C)NC(=O)c1cn(-c2ccccc2)c2ncccc2c1=O`, the pIC50 in data set [9] was 7.82; in data set [10], 6.15; in data set [11] it was 4.15.

`CCOc1cccc(-c2cccc(-n3cc(C(=O)NC(C)C)c(=O)c4cccnc43)c2)c1`: the pIC50 in data set [9] is 8.81; in data set [10], 6.08; in [11], 5.57.

Consider `CC(C)N(C)C(=O)c1cn(-c2cccc(Br)c2)c2ncccc2c1=O`, for which, in [9], the pIC50 was under 6.00.

For the compound `CC(C)CNC(=O)c1cn(-c2cccc(Br)c2)c2ncccc2c1=O`, the pIC50 in data set [9] is 8.45; in data set [10], 5.68.

For `Cc1ccc2c(=O)c(C(=O)NC(C)C)cn(-c3cccc(Br)c3)c2n1`, in data set [9], the pIC50 was under 6.00.

`NC(=O)c1cn(-c2cccc(Br)c2)c2ncccc2c1=O`: the pIC50 is 6.85 in data set [9] and under 4.02 in data set [11].

As for `CC(=O)c1cccc(-c2cccc(-n3cc(C(=O)NC(C)C)c(=O)c4cccnc43)c2)c1`, the pIC50 in [9] is 9.43; in data set [10] it was 6.33; in data set [11], 5.16.

`CC(C)NC(=O)c1cn(-c2cccc(-c3ccc(S(C)(=O)=O)cc3)c2)c2ncccc2c1=O`: the figures for the pIC50 in [9], in data set [10] and in data set [11] were 9.21, 7.16 and 4.64, respectively.

As to `O=C(NC1CC1)c1cn(-c2cccc(-c3ccncc3)c2)c2ncccc2c1=O`, the pIC50 in data set [10] is 6.17; in data set [11], 4.73.

On to `CS(=O)(=O)c1ccc(-c2cccc(-n3cc(C(=O)NC4CC4)c(=O)c4cccnc43)c2)cn1`, for which the pIC50 in data set [10] is 6.85; in data set [11], 4.87.

For `CSc1ccc(-c2cccc(-n3cc(C(=O)NC(C)C)c(=O)c4cccnc43)c2)cc1`, the pIC50 is 9.12 in [9], 6.19 in data set [10] and 6.02 in data set [11].

`CC(C)(O)c1ccc(-c2cccc(-n3cc(C(=O)NC4CC4)c(=O)c4cccnc43)c2)c[n+]1[O-]`: the pIC50 in data set [9] is 8.21; in [10] it was 6.92; in data set [12], 8.15; in data set [13] it was 4.23; in data set [11], 4.30. The half-life was 1.5 h in [1], 2 h in data set [2] and 4 h in data set [3]. This compound yielded a Cmax in data set [4] of 3.7 µM. The bioavailability is 87% in [5], 100% in [6] and 33% in [7]. The same compound returned an inhibition in vivo at 0.03 mg/kg in [14] of 69%. Further, the inhibition in vivo at 0.5 mg/kg in data set [8] was determined as 84%. Besides, the Ratio in data set [15] came out at 530.

As for `Cc1noc(/C(=C/c2cccc(-n3cc(C(=O)Nc4c(Cl)cncc4Cl)c(=O)c4cccnc43)c2)c2ccc(S(C)(=O)=O)cc2)n1`, the results for the pIC50 in data set [9] and in data set [10] were 10.22 and 8.52, respectively.

For `Cc1ccc(-n2cc(C(=O)NC(C)C)c(=O)c3cccnc32)cc1Br`, the pIC50 in data set [9] is 7.18.

As for `CC(=O)c1cccc(-c2cccc(-n3cc(C(=O)Nc4c(Cl)cncc4Cl)c(=O)c4cccnc43)c2)c1`, the pIC50 was 9.77 in [9] and 8.30 in [10].

As to `CC(=O)c1ccc(-c2cccc(-n3cc(C(=O)NC(C)C)c(=O)c4cccnc43)c2)cc1`, the pIC50 is 9.47 in [9] and 7.12 in [10].

`O=C(NC1CC1)c1cn(-c2cccc(-c3cccnc3)c2)c2ncccc2c1=O`: the pIC50 in data set [10] was 6.80.

As for `CC(C)(O)c1ccc(C#Cc2cccc(-n3cc(C(=O)NC4CC4)c(=O)c4cccnc43)c2)c[n+]1[O-]`, the pIC50 in [10] is 6.52; in [11], 4.05.

`CC(C)(O)c1ccc(-c2cccc(-n3cc(C(=O)NC4CC4)c(=O)c4cccnc43)c2)cn1` gave a pIC50 in data set [10] of 7.18. Besides, the half-life in data set [1] was under 0.5 h.

As to `O=C(NC1CC1)c1cn(-c2cccc(C#Cc3cccnc3)c2)c2ncccc2c1=O`, the figures for the pIC50 in [10] and in data set [11] were 6.80 and 4.78, respectively.

With `O=C(NC1CC1)c1cn(-c2cccc(C#Cc3ccc[n+]([O-])c3)c2)c2ncccc2c1=O` [MK-0873], the pIC50 in data set [9] was 8.17; in [10], 6.74; in data set [12], 7.64; in data set [13] it was 4.39. Further, the half-life is 2 h in data set [1], 2 h in data set [2] and 5 h in [3]. This compound also returned a Cmax in [4] of 5.1 µM. Further, the results for the bioavailability in data set [5], in data set [6] and in [7] were 98%, 100% and 38%, respectively. In data set [14], this compound displayed an inhibition in vivo at 0.03 mg/kg of 65%. The compound also returned an inhibition in vivo at 0.5 mg/kg in data set [8] of 84%.
